Assay results taken from publication PMC5223195, “Novel long-chain compounds with both immunomodulatory and MenA inhibitory activities against Staphylococcus aureus and its biofilm” (Scientific Reports, 2017).
In brackets after ≈: the same amount, converted by molar mass. Entries after “also recorded” stand apart in the source; their conditions may differ.

Tests used:
Pseudomonas aeruginosa = assay: MIC against Pseudomonas aeruginosa; type: cell-based; conditions: read-out: MIC, PA
Enterococcus faecalis = assay: MIC against Enterococcus faecalis; type: cell-based; conditions: read-out: MIC, EF
Gram-positive bacteria = assay: MIC against Gram-positive bacteria (summary); type: cell-based; conditions: range over all tested Gram-positive bacteria
Method: (§1) 96-well plates were seeded with 5 × 10^5 CFU/mL in a volume of 100 μL of tryptic soy broth (TSB) per well for Staphylococcus aureus assays. Compounds were dissolved in DMSO and serially diluted as 1:2 dilutions to give the final concentration ranging from 0.25 to 128 μg/mL per well. […] Plates were incubated at 37 °C for 18–20 hours and MIC was determined by reading OD625. For M.avium and M.abscessus, 7H9 broth media was used for determination of MICs. The final concentration was 5 × 10^5 CFU/mL in each well. The plate was incubated at 37 °C for 7–8 days and MICs were determined using a Tecan microplate reader (OD625) and resazurin reduction assay.

[1] = tested on: Methicillin susceptible Staphylococcus aureus; assay: MIC against MSSA; type: cell-based; conditions: MSSA
Method: as §1

Mycobacterium avium = assay: MIC against Mycobacterium avium; type: cell-based; conditions: 7H9 broth, 7–8 days
Method: as §1

MRSA USA300 = assay: MIC against MRSA USA300; type: cell-based, Staphylococcus aureus; conditions: Staphylococcus aureus; TSB, 37 °C, 18–20 hours; read-out: MIC, Staphylococcus aureus isolate USA300
Method: as §1

MRSA USA500 = assay: MIC against MRSA USA500; type: cell-based, Staphylococcus aureus; conditions: Staphylococcus aureus; TSB, 37 °C, 18–20 hours; read-out: MIC, Staphylococcus aureus isolate USA500
Method: as §1

MRSA USA200 = assay: MIC against MRSA USA200; type: cell-based, Staphylococcus aureus; conditions: Staphylococcus aureus; TSB, 37 °C, 18–20 hours; read-out: MIC, Staphylococcus aureus isolate USA200
Method: as §1

TNF-α = TNF-α release from THP-1 macrophages; type: cell-based, human; conditions: concentration equal to MIC, 24 h, 37 °C
Method: (§2) THP-1 cells were differentiated into macrophages by treatment with PMA (7.5 ng/mL). Levels of the human cytokines (GM-CSF, IFN-γ, IL-1β, IL-2, IL-4, IL-5, IL-6, IL-8, IL-10, TNF-α) released from THP-1 macrophages were determined using a multiplex kit from Life Technologies according to the manufacturer’s instructions. In brief, the 96 well filter plate was pre-wetted, and then 25 μL of the diluted bead suspension was added to each well and washed twice. 100 μL of samples and standards were added to each well. The plate was incubated at room temperature for 2 h on a shaker. Following washing, biotinylated detection antibody was added and incubated for 1 h. After washing, streptavidin-RPE was added to each well and incubated for 0.5 h. The plate was again washed, resuspended in 100 μL of the washing buffer, and read on the Luminex xMAP™ system (Bio-Rad, AtheNA multi-Lyte™, USA). All samples were run in triplicate and standards were run in duplicate.

MRSA (USA200) = assay: Colony morphology / small colony variant formation on TSA; type: cell-based, Staphylococcus aureus; conditions: USA200 on TSA, 37 °C, up to 96 h (3a 4–16 μg/mL), 72 h (7c, rifampin)
Method: MRSA was streaked and then incubated on tryptic soy agar (TSA) containing 0, 2, 4, 8 or 16 μg/mL of inhibitor 3a or 4 μg/mL of 7C or 0.025 μg/mL of rifampin at 37 °C for 96 h. MK-4 (100 μg/mL) was supplemented in TSA containing 8 μg/mL of 3a for the rescue experiment.

Mycobacterium abscessus = assay: MIC against Mycobacterium abscessus; type: cell-based; conditions: Mycobacteroides abscessus, 7H9 broth, 7–8 days
Method: as §1

MRSA (USA 700) = assay: Activity against extracellular MRSA in the presence of human MDMs; type: cell-based, Staphylococcus aureus; conditions: extracellular MRSA USA700, MIC and MIC/4, 24 h
Method: Human monocyte-derived macrophages (MDM) were cultured at a concentration of 1 × 10^6 cells/mL/well in a 24 well plate. MRSA (USA 700) was cultured in TSB (10 mL) until OD625 reached 0.4~0.5 and then centrifuged at 14,000 rpm for 10 min. The pellets were resuspended in 10 mL of DMEM supplemented with 10% human serum (no antibiotics). The bacteria medium was diluted with DMEM containing an inhibitor to obtain 1 × 10^6 CFU/mL and added to human MDMs (MOI = 1) in a 24-well plate. After 24 hour infection at 37 °C, the supernatants were serially diluted for CFU determination (TSA plates).

IL-1β = IL-1β release from THP-1 macrophages; type: cell-based, human; conditions: concentration equal to MIC, 24 h, 37 °C
Method: as §2

MRSA USA700 = assay: MIC against MRSA USA700; type: cell-based, Staphylococcus aureus; conditions: Staphylococcus aureus; TSB, 37 °C, 18–20 hours; read-out: MIC, Staphylococcus aureus isolate USA700
Method: as §1

MRSA USA100 = assay: MIC against MRSA USA100; type: cell-based, Staphylococcus aureus; conditions: Staphylococcus aureus; TSB, 37 °C, 18–20 hours; read-out: MIC, Staphylococcus aureus isolate USA100
Method: as §1

MRSA USA800 = assay: MIC against MRSA USA800; type: cell-based, Staphylococcus aureus; conditions: Staphylococcus aureus; TSB, 37 °C, 18–20 hours; read-out: MIC, Staphylococcus aureus isolate USA800
Method: as §1

MRSA USA400 = assay: MIC against MRSA USA400; type: cell-based, Staphylococcus aureus; conditions: Staphylococcus aureus; TSB, 37 °C, 18–20 hours; read-out: MIC, Staphylococcus aureus isolate USA400
Method: as §1

IL-6 = IL-6 release from THP-1 macrophages; type: cell-based, human; conditions: concentration equal to MIC, 24 h, 37 °C
Method: as §2

MRSA strains = assay: MIC against MRSA strains (summary); type: cell-based, Staphylococcus aureus; conditions: range over MRSA strains
Method: as §1

MenA = conditions: previously reported; cited from earlier work

With Fc1ccc(CCNCCCOc2ccc3ccc(OCCCNCCc4ccc(F)cc4)cc3c2)cc1 [7c] the MIC (Pseudomonas aeruginosa) was > 128 µg/mL, the MIC (Enterococcus faecalis) was 1 µg/mL (≈ 1.93 µM) and the “MIC values against all Gram-positive bacteria (range)” value (Gram-positive bacteria) was 0.5 to 16 µg/mL. It also gave an MIC [1] of 2 µg/mL (≈ 3.86 µM), an MIC (Mycobacterium avium) of 3 µg/mL (≈ 5.78 µM) and an MIC (MRSA USA300) of 3 µg/mL (≈ 5.78 µM). The MIC (MRSA USA500) was 8 µg/mL (≈ 15.4 µM), the MIC (MRSA USA200) was 2 µg/mL (≈ 3.86 µM) and the “TNF-α released from THP-1 macrophages” value (TNF-α) was “decreased”. For the same molecule, the “induction of small colony variants (SCV)” value (MRSA (USA200)) was “did not induce SCV”, the MIC (Mycobacterium abscessus) was 6 µg/mL (≈ 11.6 µM) and the “increase of antibacterial activity compared to activities with MDMs” value (MRSA (USA 700)) was 1.5 – 3 fold. The “increase of antibacterial activity compared to activities without MDMs” value (MRSA (USA 700)) was 6–12 fold, the “IL-1β released from THP-1 macrophages” value (IL-1β) was “stimulated the release” and the MIC (MRSA USA700) was 2 µg/mL (≈ 3.86 µM). The MIC (MRSA USA100) was 3 µg/mL (≈ 5.78 µM), the MIC (MRSA USA800) was 4 µg/mL (≈ 7.71 µM) and the MIC (MRSA USA400) was 1 µg/mL (≈ 1.93 µM). The “IL-6 released from THP-1 macrophages” value (IL-6) was “decreased; also recorded: significantly reduced” and the “MICs against MRSA strains (range)” value (MRSA strains) was 1 to 8 µg/mL.
C=CCN(C)CCCCCCCCOc1ccc2ccc(OC)cc2c1 [compound 1] gave an MIC (Pseudomonas aeruginosa) of 128 µg/mL (≈ 360 µM), an MIC (Enterococcus faecalis) of 8 µg/mL (≈ 22.5 µM) and an MIC [1] of 32 µg/mL (≈ 90 µM). The MIC (MRSA USA300) was 16 µg/mL (≈ 45 µM), the MIC (MRSA USA700) was 16 µg/mL (≈ 45 µM) and the “M.tb IC50 (inhibition of both M.tb and MenA enzyme activity)” value (MenA) was 6 µg/mL. The MIC (MRSA USA400) was 16 µg/mL (≈ 45 µM).
In the case of COc1ccc2ccc(OCCCCCCCCN3CCCCC3)cc2c1 [compound 2], the MIC (Pseudomonas aeruginosa) is reported as > 64 µg/mL, the MIC (Enterococcus faecalis) is reported as 16 µg/mL (≈ 43.3 µM) and the MIC [1] is reported as 16 µg/mL (≈ 43.3 µM). The MIC (MRSA USA300) was 16 µg/mL (≈ 43.3 µM), the MIC (MRSA USA700) was 16 µg/mL (≈ 43.3 µM) and the “M.tb IC50 (inhibition of both M.tb and MenA enzyme activity)” value (MenA) was 5 µg/mL. It also gave an MIC (MRSA USA400) of 16 µg/mL (≈ 43.3 µM).
